This is an account of results in US12496298B2, “Natural killer cells” (Imperial College Innovations Limited, priority 2017, dated 2025).

Series [1] has as its system HPCs isolated from wild type, E4bp4 knockout and heterozygous mice. The series is described as follows: NK cell production from HPCs isolated from WT, E4bp4 Het and E4bp4 KO mice. It is filed as cell-based, mouse. The procedure: FIG. 7: HPCs isolated from either wild type (WT), E4bp4 knockout (KO) or heterozygous (Het) mice were cultured with the addition of 5 or 10 μM SR8278. At Day 9, percentage of NK cells was quantified using flow cytometry. Graph showing relative mature mouse NK cell (NK1.1^+ CD3^−) production compared to the ‘No drug’ control in experiments with (A) WT, (B) Het and (C) E4bp4 KO mice. (D) Representative flow cytometry results with percentage of NK cells shown for the addition of 10 μM SR8278. Results were averaged from two experiments with four repeats each and the error bars represent the mean+SD. Asterisks indicate significant differences from the two annotated results (* is P≤0.01 and ** is P≤0.001) based on Mann-Whitney test.
Following the experiment with GSK4112, it was predicted that SR8278 acts through the pathway involving REV-ERB and E4bp4. […] Cell cultures were performed as previously (FIG. 3), where SR8278 was added on Day 2 of the culture and NK cell production was measured by flow cytometry. […]
Cells to be analysed by flow cytometry were passed through 40 μm cell strainers to remove clumps and washed with PBS buffer, centrifuged at 800 g for 2 minutes and resuspended in 100 μl fluorescent activated cell sorting (FACS) buffer (PBS plus 1% BSA) with appropriate fluorochrome conjugated antibodies at a dilution of 1 in 300. […]

Another series concerns Human CD34+ cells. The series is described as follows: Toxicity to human CD34+ cells in NK cell culture. Format: cell-based. From the text: The hypothesis that SR8278 increases NK cells production would not have any potential therapeutic value if it was not also true for human NK cell production. Therefore, the effect of SR8278 on human NK cell production from human HPCs was examined. Human HPCs were obtained as the CD34^+ population purified from umbilical cord blood from collaborators at the Anthony Nolan Research Institute, London. Human NK cell development goes through a similar developmental pathway to mouse NK cell development. […]
CD34^+ umbilical cord blood progenitor cells were provided by Anthony Nolan Research Institute, University College London. […] Cells were thawed, counted and then plated on EL08.1D2 plates prepared previously at a concentration of 1000 cells/well in human NK cells differentiation medium (Alpha-MEM plus 20% Human AB serum (Invitrogen), 50 μM β-Mercaptoethanol and 1% P/S along with 5 ng/ml human-IL-3 (Peprotech), 20 ng/ml human-IL-7 (Peprotech), 10 ng/ml human-Flt3-L (Peprotech), 20 ng/ml human-SCF (Peprotech) and 10 ng/ml human-IL-15 (Peprotech). Note that human-IL-3 is only needed for the first week of culture. Cells were left in the culture at 37° C., 5% CO2 for 14 or 16 days with a change of human NK differentiation medium at day 7 and 12.

“Also recorded” adds a separate entry of the source.

As for `CCOC(=O)C1Cc2ccccc2CN1C(=O)c1ccc(SC)s1` (stereo not shown) [SR8278, 1,2,3,4-Tetrahydro-2-[[5-(methylthio)-2-thienyl]carbonyl]-3-isoquinolinecarboxylic acid ethyl ester], the “percentage of NK cells produced” value in series [1] (HPCs from E4bp4 KO mice, regardless of concentration) was “absent of NK cells; also recorded: no effect”. For the same compound, the “percentage of NK cells produced compared to 'No drug' control” value in series [1] (HPCs from WT mice, 5 μM and 10 μM added Day 2) is given as “largest significant increase”. Also, the entries for the “toxicity to human CD34+ cells” value in the series on Human CD34+ cells (5 μM) and in the series on Human CD34+ cells (10 μM) were “not toxic” and “completely toxic”, respectively.
